One experiment deals with human M1 receptor (Homo sapiens (Human), UniProt P11229). Nature of the experiment: Radioligand (tritiated N-methylscopolamine) binding assay, M1. As to conditions: CHO cell membranes expressing human M1; 1.5 nM tritiated N-methylscopolamine; 90 min, 37° C.; read-out: Ki against M1 receptor (Table 21, M1). In outline:
(§1)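 Inhibition of radioligand binding gave Ki. The assay used recombinant CHO membranes, 1.5 nM tracer, a 90 min/37 °C incubation and pH 7.4 buffer.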

A further experiment deals with human M5 receptor (Homo sapiens (Human), UniProt P08912). Nature of the experiment: Radioligand (tritiated N-methylscopolamine) binding assay, M5. As to conditions: CHO cell membranes expressing human M5; 1.5 nM tritiated N-methylscopolamine; 90 min, 37° C.; read-out: Ki against M5 receptor (Table 21, M5). In outline: as §1
The target of the next experiment is human M2 receptor (Homo sapiens (Human), UniProt P08172). Kind of experiment: Radioligand (tritiated N-methylscopolamine) binding assay, M2. As to conditions: CHO cell membranes expressing human M2; 1.5 nM tritiated N-methylscopolamine; 90 min, 37° C.; read-out: Ki against M2 receptor (Table 21, M2). The essentials:
as §1

In a further experiment the target is human M4 receptor (Homo sapiens (Human), UniProt P08173). Kind of experiment: Radioligand (tritiated N-methylscopolamine) binding assay, M4. Conditions: Ki against the M4 receptor; membranes from CHO cells expressing human M4; tritiated N-methylscopolamine 1.5 nM; read-out: Ki. The essentials:
as §1

In the next experiment the target is human M3 receptor (Homo sapiens (Human), UniProt P20309). Kind of experiment: Radioligand (tritiated N-methylscopolamine) binding assay, M3. As to conditions: CHO cell membranes expressing human M3; 1.5 nM tritiated N-methylscopolamine; 90 min, 37° C.; read-out: Ki against M3 receptor (Table 21, M3). The essentials: as §1

In patent US11033539B2, “Compounds of formulas (VII), (VIII), (IX), (XI), (XII), (XIII), and (XIV) as muscarinic receptor 4(M4) antagonists for treating neurological diseases” (Neurocrine Biosciences, Inc., priority 2015, dated 2021) one finds Ki data, which are given here for 21 compounds.

human M1 receptor, sequence (P11229 whole entry): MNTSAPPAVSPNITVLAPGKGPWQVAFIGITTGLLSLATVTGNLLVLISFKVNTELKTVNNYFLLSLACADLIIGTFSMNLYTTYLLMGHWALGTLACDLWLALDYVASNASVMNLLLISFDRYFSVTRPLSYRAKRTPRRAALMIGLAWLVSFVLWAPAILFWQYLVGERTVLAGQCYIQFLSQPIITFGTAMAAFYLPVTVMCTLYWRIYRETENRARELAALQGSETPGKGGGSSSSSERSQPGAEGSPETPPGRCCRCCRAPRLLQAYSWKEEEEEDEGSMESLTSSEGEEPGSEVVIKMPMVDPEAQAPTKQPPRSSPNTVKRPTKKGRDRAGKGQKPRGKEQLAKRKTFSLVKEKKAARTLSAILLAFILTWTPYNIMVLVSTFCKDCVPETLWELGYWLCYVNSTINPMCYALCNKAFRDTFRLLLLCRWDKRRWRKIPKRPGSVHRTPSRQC
human M3 receptor, sequence (P20309 whole entry): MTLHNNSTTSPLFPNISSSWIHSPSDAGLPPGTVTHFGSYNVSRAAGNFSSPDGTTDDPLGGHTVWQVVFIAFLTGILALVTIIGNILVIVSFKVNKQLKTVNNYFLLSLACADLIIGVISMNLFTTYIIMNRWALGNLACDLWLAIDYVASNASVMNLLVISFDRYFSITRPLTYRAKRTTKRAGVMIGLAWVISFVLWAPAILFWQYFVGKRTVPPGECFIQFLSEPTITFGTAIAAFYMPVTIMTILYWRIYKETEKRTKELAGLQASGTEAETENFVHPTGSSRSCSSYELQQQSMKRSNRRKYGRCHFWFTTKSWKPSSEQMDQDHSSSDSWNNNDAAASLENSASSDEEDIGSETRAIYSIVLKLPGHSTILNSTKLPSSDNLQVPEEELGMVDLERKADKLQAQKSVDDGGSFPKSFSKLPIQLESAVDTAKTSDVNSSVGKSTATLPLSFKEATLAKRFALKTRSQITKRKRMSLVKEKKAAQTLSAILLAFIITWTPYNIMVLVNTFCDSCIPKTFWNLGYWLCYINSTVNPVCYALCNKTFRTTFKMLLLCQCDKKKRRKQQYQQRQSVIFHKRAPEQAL
human M2 receptor, sequence (P08172 whole entry): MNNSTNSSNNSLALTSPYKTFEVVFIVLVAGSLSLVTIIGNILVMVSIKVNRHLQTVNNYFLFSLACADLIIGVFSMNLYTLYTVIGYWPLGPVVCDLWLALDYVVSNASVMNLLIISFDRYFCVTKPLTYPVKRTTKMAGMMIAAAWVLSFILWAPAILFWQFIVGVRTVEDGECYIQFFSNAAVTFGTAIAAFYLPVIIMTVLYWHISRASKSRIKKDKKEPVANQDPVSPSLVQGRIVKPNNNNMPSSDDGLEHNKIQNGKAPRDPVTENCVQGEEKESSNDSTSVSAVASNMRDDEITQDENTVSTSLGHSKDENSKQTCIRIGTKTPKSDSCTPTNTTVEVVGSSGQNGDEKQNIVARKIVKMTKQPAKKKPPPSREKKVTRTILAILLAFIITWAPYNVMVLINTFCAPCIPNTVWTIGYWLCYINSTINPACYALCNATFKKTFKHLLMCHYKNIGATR
human M5 receptor, sequence (P08912 whole entry): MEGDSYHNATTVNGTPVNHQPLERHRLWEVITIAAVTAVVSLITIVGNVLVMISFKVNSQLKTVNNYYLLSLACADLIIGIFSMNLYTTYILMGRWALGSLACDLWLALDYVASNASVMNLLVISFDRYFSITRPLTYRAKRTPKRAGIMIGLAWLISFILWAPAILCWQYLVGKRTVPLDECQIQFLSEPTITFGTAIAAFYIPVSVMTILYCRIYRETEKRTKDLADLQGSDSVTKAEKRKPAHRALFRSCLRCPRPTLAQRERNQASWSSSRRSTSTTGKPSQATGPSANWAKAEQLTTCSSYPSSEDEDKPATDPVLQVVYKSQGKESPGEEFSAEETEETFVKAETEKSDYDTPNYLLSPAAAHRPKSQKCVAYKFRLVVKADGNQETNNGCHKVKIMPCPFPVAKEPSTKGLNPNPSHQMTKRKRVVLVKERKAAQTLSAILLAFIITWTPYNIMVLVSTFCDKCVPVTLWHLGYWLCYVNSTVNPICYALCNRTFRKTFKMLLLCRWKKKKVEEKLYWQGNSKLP
human M4 receptor, sequence (P08173 whole entry): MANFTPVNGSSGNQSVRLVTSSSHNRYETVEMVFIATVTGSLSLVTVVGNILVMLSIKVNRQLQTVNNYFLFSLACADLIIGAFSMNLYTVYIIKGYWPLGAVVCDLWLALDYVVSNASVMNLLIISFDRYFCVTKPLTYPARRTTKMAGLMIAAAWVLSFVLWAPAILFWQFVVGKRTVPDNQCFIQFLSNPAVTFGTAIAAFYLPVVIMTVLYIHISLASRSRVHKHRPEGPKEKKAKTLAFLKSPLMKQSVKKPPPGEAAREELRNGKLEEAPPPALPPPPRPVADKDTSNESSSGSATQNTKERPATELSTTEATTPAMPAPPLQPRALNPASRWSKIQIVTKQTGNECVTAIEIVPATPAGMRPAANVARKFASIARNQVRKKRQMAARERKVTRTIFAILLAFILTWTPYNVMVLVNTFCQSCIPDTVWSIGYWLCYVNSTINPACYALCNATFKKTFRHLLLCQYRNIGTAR

A word on the Ki: it is the equilibrium dissociation constant of an inhibitor or competing ligand from its target. With `Cc1c(C(=O)NC[C@H](O)C2CCN(Cc3ccccc3)CC2)cnc2cc(-c3cccc(C(F)(F)F)c3)nn12` [17-6, N-[(2R)-2-(1-benzylpiperidin-4-yl)-2-hydroxyethyl]-7-methyl-2-[3-(trifluoromethyl)phenyl]pyrazolo[1,5-a]pyrimidine-6-carboxamide], the Ki on human M1 receptor was > 1000 nM; at human M5 receptor, > 1000 nM; on human M2 receptor, 100 to 1000 nM; on human M4 receptor it was < 10 nM; at human M3 receptor, > 1000 nM.
For `CC1CN(c2cccc(OC(F)(F)F)c2)CCC1C(=O)NCCC1CCN(Cc2ccccc2)CC1` (stereo not drawn) [10-18, N-[2-(1-benzylpiperidin-4-yl)ethyl]-3-methyl-1-[3-(trifluoromethoxy)phenyl]piperidine-4-carboxamide], the Ki was > 1000 nM on human M1 receptor; > 1000 nM on human M5 receptor; 100 to 1000 nM at human M2 receptor; < 10 nM at human M4 receptor; > 1000 nM on human M3 receptor.
On to `O=C(NCCC1CCN(Cc2ccccc2)CC1)N1CCN(c2ccc(C(F)(F)F)cc2)CC1` [4-76, N-[2-(1-benzylpiperidin-4-yl)ethyl]-4-[4-(trifluoromethyl)phenyl]piperazine-1-carboxamide], for which the Ki at human M1 receptor is > 1000 nM; on human M5 receptor, > 1000 nM; on human M2 receptor it was 100 to 1000 nM; on human M4 receptor, < 10 nM; on human M3 receptor, > 1000 nM.
Regarding `C[C@@H]1CN(c2cc(F)c(C#N)cc2F)CCN1C(=O)NCCC1CCN(Cc2ccccc2)CC1` [22-10], the Ki on human M1 receptor is > 1000 nM; at human M5 receptor it was > 1000 nM; on human M2 receptor it was 100 to 1000 nM; on human M4 receptor it was < 10 nM; at human M3 receptor it was > 1000 nM.
For the compound `C[C@@H]1CN(c2ccc(OC(F)(F)F)c(C#N)c2)CCN1C(=O)NCC[C@H]1CCN(Cc2ccccc2)C1` [9-10, (2R)-N-{2-[(3S)-1-benzylpyrrolidin-3-yl]ethyl}-4-[3-cyano-4-(trifluoromethoxy)phenyl]-2-methylpiperazine-1-carboxamide], the Ki at human M1 receptor was 100 to 1000 nM; on human M5 receptor it was > 1000 nM; on human M2 receptor it was 100 to 1000 nM; on human M4 receptor, < 10 nM; on human M3 receptor, 100 to 1000 nM.
In the case of `C[C@@H]1CN(c2ccc(F)c(F)c2)CCN1C(=O)NCCC1CCN(Cc2ccccc2)CC1` [4-15, (2R)-N-[2-(1-benzylpiperidin-4-yl)ethyl]-4-(3,4-difluorophenyl)-2-methylpiperazine-1-carboxamide], the inhibitory constant (Ki) is 100 to 1000 nM at human M1 receptor; > 1000 nM on human M5 receptor; 100 to 1000 nM on human M2 receptor; < 10 nM on human M4 receptor; > 1000 nM at human M3 receptor.
Regarding `C[C@@H]1CN(c2cnc(Cl)c(F)c2)C[C@H](C)N1C(=O)NCCC1CCN(Cc2ccccc2)CC1` [22-8], the Ki on human M1 receptor is 100 to 1000 nM; on human M5 receptor, > 1000 nM; on human M2 receptor, 10 to 100 nM; on human M4 receptor it was < 10 nM; at human M3 receptor, > 1000 nM.
For `Cc1c(C(=O)NCCC2CCN(Cc3ccccc3)CC2)cnc2cc(-c3cccc(OC(F)(F)F)c3)nn12` [18-16], the inhibition constant Ki at human M1 receptor is > 1000 nM; on human M5 receptor, > 1000 nM; on human M2 receptor, 100 to 1000 nM; on human M4 receptor it was < 10 nM; on human M3 receptor, > 1000 nM.
`C[C@@H]1CN(c2cnc(C(F)(F)F)cn2)C[C@@H](C)N1C(=O)NCCC1CCN(Cc2ccccc2)CC1` [26-4, (2R,6R)-N-[2-(1-benzylpiperidin-4-yl)ethyl]-2,6-dimethyl-4-[5-(trifluoromethyl)pyrazin-2-yl]piperazine-1-carboxamide]: the Ki was > 1000 nM at human M1 receptor; > 1000 nM at human M5 receptor; 100 to 1000 nM on human M2 receptor; < 10 nM on human M4 receptor; > 1000 nM at human M3 receptor.
With `C[C@@H]1CN(c2ccc(OC(F)(F)F)nc2)CCN1C(=O)NCCC1CCN(Cc2ccccc2)CC1` [3-8, (2R)-N-[2-(1-benzylpiperidin-4-yl)ethyl]-2-methyl-4-[6-(trifluoromethoxy)pyridin-3-yl]piperazine-1-carboxamide], the inhibitory constant (Ki) on human M1 receptor is 100 to 1000 nM; on human M5 receptor, > 1000 nM; on human M2 receptor it was 10 to 100 nM; on human M4 receptor, < 10 nM; on human M3 receptor, 100 to 1000 nM.
Consider `C[C@@H]1CN(c2ncc(C#N)cn2)C[C@H](C)N1C(=O)NCCC1CCN(CC[Si](C)(C)C)CC1` [21-7], for which the inhibition constant (Ki) was 10 to 100 nM on human M1 receptor; 100 to 1000 nM at human M5 receptor; < 10 nM at human M2 receptor; < 10 nM at human M4 receptor; 10 to 100 nM at human M3 receptor.
Turning to `C[C@@H]1CN(c2cnc(C(F)(F)F)nc2)C[C@H](C)N1C(=O)NCCC1CCN(Cc2ccc3[nH]ccc3c2)CC1` [6-50, (2R,6S)-N-{2-[1-(1H-indol-5-ylmethyl)piperidin-4-yl]ethyl}-2,6-dimethyl-4-[2-(trifluoromethyl)pyrimidin-5-yl]piperazine-1-carboxamide], the Ki at human M1 receptor was 100 to 1000 nM; on human M5 receptor it was > 1000 nM; at human M2 receptor it was 10 to 100 nM; at human M4 receptor, < 10 nM; at human M3 receptor it was 100 to 1000 nM.
Consider `N#Cc1cc(N2CCC(C(=O)NCCC3(O)CCN(Cc4ccccc4)CC3)CC2)ccc1OC(F)(F)F` [10-20, N-[2-(1-benzyl-4-hydroxypiperidin-4-yl)ethyl]-1-[3-cyano-4-(trifluoromethoxy)phenyl]piperidine-4-carboxamide], for which the inhibitory constant (Ki) on human M1 receptor was > 1000 nM; on human M5 receptor, > 1000 nM; on human M2 receptor, 100 to 1000 nM; on human M4 receptor, < 10 nM; at human M3 receptor, > 1000 nM.
For the compound `C[C@@H]1CN(c2ncc(C#N)cn2)C[C@H](C)N1C(=O)NCCC1CCN(Cc2ccc3[nH]ccc3c2)CC1` [6-47, (2R,6S)-4-(5-cyanopyrimidin-2-yl)-N-{2-[1-(1H-indol-5-ylmethyl)-piperidin-4-yl]ethyl}-2,6-dimethylpiperazine-1-carboxamide], the Ki at human M1 receptor is 100 to 1000 nM; on human M5 receptor, 100 to 1000 nM; on human M2 receptor it was < 10 nM; at human M4 receptor, < 10 nM; at human M3 receptor it was 100 to 1000 nM.
For the compound `C[C@@H]1CN(c2ncc(C(F)(F)F)c(N)n2)C[C@@H](C)N1C(=O)NCCC1CCN(Cc2ccccc2)CC1` [26-1, (2R,6R)-4-[4-amino-5-(trifluoromethyl)pyrimidin-2-yl]-N-[2-(1-benzylpiperidin-4-yl)ethyl]-2,6-dimethylpiperazine-1-carboxamide], the Ki is 100 to 1000 nM on human M1 receptor; > 1000 nM at human M5 receptor; 10 to 100 nM at human M2 receptor; < 10 nM on human M4 receptor; > 1000 nM on human M3 receptor.
Turning to `O=C(NCCC1CCN(Cc2ccccc2)CC1)N1CCN(c2ncc(C(F)(F)F)cn2)CC1` [5-24, N-[2-(1-benzylpiperidin-4-yl)ethyl]-4-[5-(trifluoromethyl)pyrimidin-2-yl]piperazine-1-carboxamide], the Ki on human M1 receptor is 100 to 1000 nM; on human M5 receptor, > 1000 nM; at human M2 receptor, 10 to 100 nM; at human M4 receptor, < 10 nM; on human M3 receptor, > 1000 nM.
In the case of `C[C@@H]1CN(c2cc(F)c(F)c(F)c2)CCN1C(=O)NCCC1CCN(Cc2cccs2)CC1` [6-26, (2R)-2-methyl-N-{2-[1-(thiophen-2-ylmethyl)piperidin-4-yl]ethyl}-4-(3,4,5-trifluorophenyl)piperazine-1-carboxamide], the Ki was 100 to 1000 nM at human M1 receptor; > 1000 nM at human M5 receptor; 10 to 100 nM at human M2 receptor; < 10 nM on human M4 receptor; > 1000 nM on human M3 receptor.
`O=C(NCCC1CCN(Cc2ccccc2)CC1CO)C1CCN(c2ccc(OC(F)(F)F)cc2)CC1` (stereo not drawn) [9-62, N-{2-[1-benzyl-3-(hydroxymethyl)piperidin-4-yl]ethyl}-1-[4-(trifluoromethoxy)phenyl]piperidine-4-carboxamide]: the inhibition constant (Ki) at human M1 receptor was 100 to 1000 nM; on human M5 receptor, > 1000 nM; on human M2 receptor it was 100 to 1000 nM; on human M4 receptor, < 10 nM; at human M3 receptor it was > 1000 nM.
`C[C@@H]1CN(c2cc(F)c(F)c(F)c2)CCN1C(=O)NCCC1CCN(Cc2ccc(O)cc2)CC1` [6-27, (2R)-N-(2-{1-[(4-hydroxyphenyl)methyl]piperidin-4-yl}ethyl)-2-methyl-4-(3,4,5-trifluorophenyl)piperazine-1-carboxamide]: the Ki on human M1 receptor was 100 to 1000 nM; on human M5 receptor, > 1000 nM; at human M2 receptor, 10 to 100 nM; on human M4 receptor, < 10 nM; at human M3 receptor, 100 to 1000 nM.
For `C[C@@H]1CN(c2ncc(C(F)(F)F)c(N)n2)C[C@H](C)N1C(=O)NCCC1CCN(Cc2ccccc2)CC1` [5-28, (2R,6S)-4-[4-amino-5-(trifluoromethyl)pyrimidin-2-yl]-N-[2-(1-benzylpiperidin-4-yl)ethyl]-2,6-dimethylpiperazine-1-carboxamide], the inhibitory constant (Ki) was 100 to 1000 nM on human M1 receptor; > 1000 nM on human M5 receptor; 100 to 1000 nM at human M2 receptor; < 10 nM at human M4 receptor; > 1000 nM on human M3 receptor.
With `Cc1c(C(=O)NCCC2CCN(Cc3ccccc3)CC2)cnc2cc(-c3ccc(F)cc3F)nn12` [18-1, N-[2-(1-benzylpiperidin-4-yl)ethyl]-2-(2,4-difluorophenyl)-7-methyl-pyrazolo[1,5-a]pyrimidine-6-carboxamide], the Ki was > 1000 nM at human M1 receptor; > 1000 nM at human M5 receptor; 10 to 100 nM on human M2 receptor; < 10 nM on human M4 receptor; > 1000 nM at human M3 receptor.
